ChEMBL document CHEMBL1159306, “Juncenolide A, a new briarane from the Taiwanese Gorgonian Junceella juncea” (J Nat Prod, 2002)
≈ marks a conversion by molar mass, not a printed value.

Columns and labels:
[1] = Cytotoxicity against human DLD cells; type: functional, cell-based
[2] = Cytotoxicity against human KB16 cells; type: functional, cell-based

In the case of `C=C1CC[C@H](OC(=O)C(C)C)[C@@]2(C)[C@@H](OC(C)=O)CC[C@@]3(CO3)[C@@H]2[C@H](OC(C)=O)[C@]2(O)[C@@H](C)C(=O)O[C@H]2[C@H]1Cl` [JUNCENOLIDE A], the IC50 [1] is reported as 3.4 µg/mL (≈ 5.95 µM) and the IC50 [2] is reported as 5.9 µg/mL (≈ 10.3 µM).
